From patent US20090221683A1, “Combination of CXCR4 Antagonist and Morphogen to Increase Angiogenesis” (Caritas St.Elizabeth Medical Center of Boston, Inc, priority 2005, published 2009)
Where two headings read alike, the source gives them in different places.

What was measured:
mice with AMI = tested on: mice with AMI
Method: (§1) Eight-week old male FVB mice were anesthetized with sodium pentobarbital (50 mg/kg IP). The animals were intubated orally with a 22G IV catheter and artificially ventilated with a respirator (Harvard Apparatus). A left intercostal thoracotomy was performed and the ribs were retracted with 5-0 polypropylene sutures. After the pericardium was opened, the left anterior descending (LAD) branch of the left coronary artery was ligated proximal to the bifurcation between the LAD and the diagonal branch using 8-0 polypropylene sutures and visualized with a dissecting microscope. Positive end-expiratory pressure was applied to fully inflate the lungs, and the chest was closed with 7-0 polypropylene sutures. […] After physiological assessment at one, two and four weeks after MI, a subgroup of the mice were euthanized by intravenous administration of a lethal dose of pentobarbital.
All values were expressed as mean±the standard error of the mean. […] Overall survival of all the mice was assessed by Kaplan-Meier analysis. Survival in individual experimental groups was also analyzed by Fisher's extract probability test. A p value of less than 0.05 was considered statistically significant.

[1] = tested on: peripheral blood MNCs and EPCs
Method: (§2) Peripheral blood mononuclear cells (PBMNCs) were isolated from 500 μl of peripheral blood obtained from each mouse. PBMNCs were cultured in EBM media (Clonetics, San Diego, Calif.) supplemented with 5% fetal bovine serum (FBS), antibiotics, and growth factors (EPC medium) on four 4-well glass slides coated with rat plasma vitronectin (Sigma) in 0.5% gelatin solution. Four days after culture, EPCs, recognized as attaching spindle-shaped cells, were assayed by co-staining with acetylated LDL (acLDL)-DiI (Biomedical Technologies, Stoughton, Mass.) and Bandeiraea simplicifolia (BS-1) lectin I (Vector Laboratories, Burlingame, Calif.), characteristics indicators of endothelial lineage, and conjugated with FITC (Sigma). Fluorescent microscopy identified double-positive cells as […] The numbers of double-positive cells per sample, measured in fifteen fields under 20× magnification, was were counted per sample in a blinded manner.
(§3) Such methods can be used for study of the compositions and methods of the instant invention.

MMP-9 mRNA = conditions: one week after MI; RT-PCR
Method: (§4) RNA was extracted from mononuclear cells isolated from bone marrow using TRIzol reagent (Invitrogen) according to the manufacture's instruction. Reverse transcriptase-polymerase chain reaction (RT-PCR) of the MMP-9 and GAPDH genes was performed using 1 pg of total RNA. PCR was performed for 25 cycles for both MMP-9 and GAPDH; each cycle maintained 94° C. for 30 seconds and 64° C. for three minutes. Amplification was carried out in 20-μl reaction mixtures containing 0.4 U Taq polymerase.

MMP-2 mRNA = conditions: one week after MI; RT-PCR
Method: as §4

[2] = tested on: border zone between scar and normal tissue capillaries; assay: Chronic MI rats: capillary density in the border zone; type: in vivo, rat; conditions: 4 weeks after treatment
Method: (§5) Methods: Using wild-type rats, MI was induced by ligation of the left anterior descending artery. […] 4 weeks after treatment, echocardiography, hemodynamic measurement and histological examination were performed.

[3] = tested on: bone marrow EPCs (Sca-1/Flk-1 positive) of MMP-9-/- mice; conditions: 1 week after MI
Text: MMP-9 expression was disrupted by deleting of most of exon 2 of the MMP-9 gene in the 129/SvEv genetic background (Jackson), as described previously. [Vu, 1998 #2370] […] Mononuclear cells from peripheral blood and total BM cells were isolated one week after MI and were examined by FACS analysis as described above.

circulating EPC = conditions: 2 hour after treatment; 240 μg/kg SC
Method: as §5

[4] = tested on: bone marrow derived EPCs (X-gal positive cells); conditions: Tie2-LacZ/BMT mice
Text: as §3, §3

peripheral blood EPCs = tested on: peripheral blood EPCs
Method: as §2
At each time point after the induction of MI, mononuclear cells were isolated from peripheral blood and total BM cells that had been obtained by flushing the tibias and femurs. EPCs were counted by culturing as described in Example 1, and stained with both acLDL-DiI and BS-1 lectin. Double positive cells were counted in 15 fields under objective 20× magnification per sample in a blinded manner.

[5] = tested on: bone-marrow derived endothelial cells (double-positive cells); conditions: one week after AMI
Text: as §3
Apex-sections from the Tie-2/LZ/BMT mice were embedded in OCT compound (Miles Scientific) and snap-frozen in liquid nitrogen for fluorescence microscopy immediately after sacrifice.
Sections of ischemic (FIGS. 12A-12F) and intact (FIGS. 13A-13F) myocardium were stained for both BS lectin 1 (green fluorescence) and β-galactosidase (red fluorescence). […] Such methods can be used for study of the compositions and methods of the instant invention.

left ventricle fibrosis = conditions: two weeks after AMI
Method: (§6) The explanted hearts of sacrificed mice were sliced in a bread-loaf fashion into transverse sections from apex to base (base-, mid-, and apex-portions) and fixed with 4% paraformaldehyde. Tissues were embedded in paraffin and sectioned for elastic tissue/trichrome staining and immunohistochemistry using the murine-specific EC marker Bandeiraea simplicifolia lectin I (Isolectin B4) (Vector laboratories).
(§7) Capillary density was assessed by histological examination of five randomly selected fields of tissue sections from segments of the left ventricular myocardium served by the occluded LAD. Capillaries were recognized as tubular structures positive for isolectin B4. Elastic tissue/trichrome-stained tissues from the mice four weeks after MI were used to measure the average ratio of the external circumference of fibrosis area to LV area.

[6] = tested on: left ventricular myocardium border zone capillaries; conditions: two weeks after AMI
Method: as §6, §7

[7] = tested on: FVB mice with myocardial infarction; conditions: for FS (fractional shortening) / LVDd (left ventricular diastolic dimension) / LVDs (left ventricular systolic dimension) / LV + dP/dt / LV − dP/dt / LVEDP (left ventricular end-diastolic pressure) / LVSP (left ventricular systolic pressure): mean ± SE
Method: as §1
Transthoracic echocardiography (SONOS 5500, Hewlett Packard) was performed just before MI and one, two and four weeks after MI. Left ventricular diastolic (LVDd) and systolic (LVDs) dimensions and fractional shortening were measured at the mid-papillary muscle level. Hemodynamic measurements were obtained at two and four weeks after MI using a 1.0-French high-fidelity pressure catheter (Millar Instruments, Houston, Tex.) via the left carotid artery. LV systolic pressure and maximal positive (+dP/dt) and negative (−dP/dt) pressure development were recorded after stabilization of LV function and heart rate. Such methods can be used for study of the compositions and methods of the instant invention.

[8] = tested on: bone marrow EPCs (Sca-1/Flk-1 positive); conditions: one week after MI
Method: (§8) Fluorescence-activated cell sorting (FACS) was used to identify EPCs from mononuclear cells isolated both from peripheral blood and bone marrow. The viable mononuclear cell population was analyzed for the expression of Sca-1-FITC (Pharmingen) and Flk-1 (Santa Cruz) conjugated with the corresponding phycoerythrin-labeled secondary antibody (Sigma). Isotype-identical antibodies served as negative controls. Immunofluorescence-labeled cells were fixed with 2% paraformaldehyde and analyzed by quantitative flow cytometry using a FACStar flow cytometer (Becton Dickinson) and Cell Quest Software that counted 10,000 events per sample.

[9] = tested on: peripheral blood EPCs (Sca-1/Flk-1 positive); conditions: one week after MI
Method: as §8

[10] = 1 week after MI, 125 μg s.c. single injection
[11] = 2 weeks after MI, 125 μg s.c. single injection
[12] = 2 weeks after MI, 125 μg s.c. single injection, listed as AMD
[13] = 2 weeks after MI, listed as AMD
[14] = 4 weeks after MI, 125 μg s.c. single injection
[15] = 4 weeks after MI, 125 μg s.c. single injection, listed as AMD
[16] = 4 weeks after MI, listed as AMD

`c1cc(CN2CCCNCCNCCCNCC2)ccc1CN1CCCNCCNCCCNCC1` [AMD-3100, 1,1′-[1,4-phenylene-bis(methylene)]-bis-1,4,8,11-tetraazacyclotetradecane] was tested, and the “mice still living (survival rate)” value (mice with AMI; 14 weeks after AMI, FIG. 4A) was 64%, the mice died (mice with AMI; another group of mice, four weeks after MI, FIG. 4B) was 42% and the “survival rate versus mice receiving saline” value (mice with AMI; four weeks after MI, P<0.05) was “higher”. For the same compound, the “maximal MNCs and EPCs (acLDL uptake and BS-1 lectin double-positive cells)” value ([1]; 1 hour after single s.c. injection of 125 μg, n=5 experiments) was 613±89 cells/mm^2, the “time for number of EPCs/MNCs to return to baseline after injection” value ([1]; single s.c. injection of 125 μg) was no more than 24 h and the “MMP-9 mRNA expression in BM-mononuclear cells” value (MMP-9 mRNA) was “enhanced expression”. The “MMP-2 mRNA expression in BM-mononuclear cells” value (MMP-2 mRNA) was “but not MMP-2”, the “capillary density in the border zone between scar and normal tissue, increase vs. control” value [2] was “+52%” and the “difference in Sca-1/Flk-1 positive BM cells versus saline” value [3] was “no significant difference”. For the same compound, the “circulating EPC counts relative to baseline” value (circulating EPC) was “five”, the “number of X-gal positive cells in infarct and border area” value ([4]; 1 week after AMI) was 3776±113 /mm^2 and the “number of X-gal positive cells in infarct and border area” value ([4]; 2 weeks after AMI) was 1906±138 /mm^2. The “number of cultured EPCs” value (peripheral blood EPCs; four weeks after AMI) was “returned to basline”, the “number of EPCs in the peripheral blood (cultured, acLDL-DiI/BS-1 lectin double positive)” value (peripheral blood EPCs; one week after AMI) was 868±210 /mm^2 and the “number of EPCs in the peripheral blood (cultured, acLDL-DiI/BS-1 lectin double positive)” value (peripheral blood EPCs; two weeks after AMI) was 556±47 /mm^2. For the same compound, the “double-positive cells (BS lectin 1 and β-galactosidase)” value ([5]; a representative section) was “eight”, the “double-positive cells (BS lectin 1 and β-galactosidase)” value ([5]; another representative section) was “eight” and the “fibrosis area of left ventricle” value (left ventricle fibrosis) was 25±6%. For the same compound, the “capillary density in the border zone” value [6] was 4005±189 /mm^2, the “FS (fractional shortening)” value [7, 10] was 35 ± 2% and the “LVDd (left ventricular diastolic dimension)” value (“LVDd” for short) [7, 10] was 3.5 ± 0.1 mm. For the same compound, the “LVDs (left ventricular systolic dimension)” value [7, 10] was 2.2 ± 0.1 mm, the “FS (fractional shortening)” value [7, 11] was 34±1% and the “LVDd” value [7, 11] was 3.8±0.1 mm. The “LVDs (left ventricular systolic dimension)” value [7, 11] was 2.5±0.1 mm, the “FS (fractional shortening)” value [7, 12] was 34±1% and the “LVDd” value [7, 12] was 3.8 ± 0.1 mm. The “LVDs (left ventricular systolic dimension)” value [7, 12] was 2.5 ± 0.1 mm, the “LVDd” value ([7]; 2 weeks after MI, 125 μg s.c. single injection, listed as AMD3100) was 3.8±0.1 mm and the “LV + dP/dt” value ([7]; 2 weeks after MI) was 3383±104 mm Hg/s. For the same compound, the “LV − dP/dt” value ([7]; 2 weeks after MI) was 2213±113 mm Hg/s, the “LVEDP (left ventricular end-diastolic pressure)” value (shortened to “LVEDP”) ([7]; 2 weeks after MI) was 1.6±0.4 mmHg and the “LVSP (left ventricular systolic pressure)” value ([7]; 2 weeks after MI) was 71±2 mmHg. The “LV − dP/dt” value [7, 13] was 2842 ± 200 mm Hg/s, the “LVEDP” value [7, 13] was 1.5±0.2 mmHg and the “LVSP (left ventricular systolic pressure)” value [7, 13] was 73 ± 3 mmHg. For the same compound, the LVDs ([7]; 3 wks post-MI (as printed in text)) was 2.5±0.2 mm, the “LVDd” value [7, 14] was 4.0±0.1 mm and the “LVDs (left ventricular systolic dimension)” value [7, 14] was 2.6±0.2 mm. The “FS (fractional shortening)” value [7, 15] was 28±1%, the “LVDd” value [7, 15] was 4.0 ± 0.1 mm and the “LVDs (left ventricular systolic dimension)” value [7, 15] was 2.9 ± 0.1 mm. For the same compound, the “LV − dP/dt” value ([7]; 4 weeks after MI) was 2213 ± 112 mm Hg/s, the “LV + dP/dt” value [7, 16] was 3383±104 mm Hg/s and the “LVEDP” value [7, 16] was 1.6±0.4 mmHg. For the same compound, the “LVSP (left ventricular systolic pressure)” value [7, 16] was 71±2 mmHg, the “FS (fractional shortening)” value ([7]; Before MI (baseline)) was 52 ± 1% and the “LVDd” value ([7]; Before MI (baseline)) was 2.8 ± 0.1 mm. For the same compound, the “LVDs (left ventricular systolic dimension)” value ([7]; Before MI (baseline)) was 1.4 ± 0.1 mm, the “difference in left ventricular systolic pressure (LVSP) between the groups” value ([7]; two weeks after MI) was “no significant difference” and the “EPCs (Sca-1/Flk-1 positive) in BM mononuclear cells by FACS” value [8] was 1.9±0.1%. The “EPCs (Sca-1/Flk-1 positive) in peripheral blood mononuclear cells by FACS” value [9] was 11.3±1.4%.
